According to ChEMBL document CHEMBL1201862, “PubChem BioAssay data set” (2004):
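Tested at 5 concentrations; 48 h exposure; 96-well plates; endpoints linearly interpolated, else capped at highest concentration. At the GI50, growth is halved.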 Calls of active or inactive are those of the source. No stated cut-off is given here; in the data, active = GI50 up to about 1.1 µM and inactive = higher.

Experiments:
Assay in all cases: inhibition of tumour cell growth, NCI panel, 48 h
Hs-578T = test system: Hs-578T
SN12C = test system: SN12C
NCI/ADR-RES = test system: NCI/ADR-RES
NCI-H23 = test system: NCI-H23
IGROV-1 = test system: IGROV-1
HOP-92 = test system: HOP-92
ACHN = test system: ACHN
UACC-257 = test system: UACC-257
COLO 205 = test system: COLO 205
SNB-19 = test system: SNB-19
786-0 = test system: 786-0
A549 = test system: A549
A498 = test system: A498
OVCAR-5 = test system: OVCAR-5
KM12 = test system: KM12
RXF 393 = test system: RXF 393

SMILES | GI50 (Hs-578T) | GI50 (SN12C) | GI50 (NCI/ADR-RES) | GI50 (NCI-H23) | GI50 (IGROV-1) | GI50 (HOP-92) | GI50 (ACHN) | GI50 (UACC-257) | GI50 (COLO 205) | GI50 (SNB-19) | GI50 (786-0) | GI50 (A549) | GI50 (A498) | GI50 (OVCAR-5) | GI50 (KM12) | GI50 (RXF 393)
COc1ccc2c(c1)C(=O)CCc1cc(OC)c(OC)c(OC)c1-2 | 0.0243 µM (active) | 0.0649 µM (active) | 0.0214 µM (active) | 0.024 µM (active) | 0.0553 µM (active) | 0.135 µM (active) | 0.0863 µM (active) | < 0.01 µM (active) | 0.0512 µM (active) | 0.051 µM (active) | 0.0542 µM (active) | 0.0687 µM (active) | 0.0504 µM (active) | 0.0783 µM (active) | 0.0298 µM (active) | 
Cc1cc(Oc2cnc(=O)[nH]c2)cs1 | > 100 µM (inactive) | > 100 µM (inactive) | > 100 µM (inactive) | > 100 µM (inactive) | > 100 µM (inactive) |  | > 100 µM (inactive) | > 100 µM (inactive) | > 100 µM (inactive) | > 100 µM (inactive) | > 100 µM (inactive) | > 100 µM (inactive) | > 100 µM (inactive) | > 100 µM (inactive) | > 100 µM (inactive) | 
FC(F)(F)c1nc2cc(SSc3cc4nc(C(F)(F)F)[nH]c4cc3Cl)c(Cl)cc2[nH]1 | > 100 µM (inactive) | > 100 µM (inactive) | > 100 µM (inactive) | > 100 µM (inactive) | > 100 µM (inactive) |  | > 100 µM (inactive) | 93.1 µM (inactive) | 53.7 µM (inactive) | > 100 µM (inactive) | > 100 µM (inactive) | > 100 µM (inactive) | > 100 µM (inactive) | > 100 µM (inactive) |  | > 100 µM (inactive)
CC1(C)OP(=O)(O)C=C1Sc1ccc([N+](=O)[O-])cc1[N+](=O)[O-] | > 100 µM (inactive) | > 100 µM (inactive) | > 100 µM (inactive) | > 100 µM (inactive) | > 100 µM (inactive) | > 100 µM (inactive) | > 100 µM (inactive) | > 100 µM (inactive) | > 100 µM (inactive) | > 100 µM (inactive) | > 100 µM (inactive) | > 100 µM (inactive) | > 100 µM (inactive) | > 100 µM (inactive) | > 100 µM (inactive) | 
CNC(=S)N/N=C(\C)c1cc(OC)c(OC)cc1O |  | > 100 µM (inactive) | > 100 µM (inactive) |  | > 100 µM (inactive) |  | > 100 µM (inactive) | > 100 µM (inactive) | > 100 µM (inactive) | > 100 µM (inactive) | > 100 µM (inactive) | > 100 µM (inactive) | > 100 µM (inactive) | > 100 µM (inactive) | > 100 µM (inactive) | > 100 µM (inactive)
O=C(Nc1sccc1S(=O)(=O)c1ccccc1)c1cccnc1 | > 46.7 µM (inactive) | 9.86 µM (inactive) | 3.96 µM (inactive) | 27 µM (inactive) | 9.02 µM (inactive) | > 42.4 µM (inactive) | 64.9 µM (inactive) | 37.5 µM (inactive) | 3.88 µM (inactive) | > 44.5 µM (inactive) | 12 µM (inactive) | 11.5 µM (inactive) |  | > 70.6 µM (inactive) | 4.62 µM (inactive) | 14.9 µM (inactive)
COc1ccc(/C=C2\NC(=S)N(CN3CCCCC3)C2=O)cc1 | 17.8 µM (inactive) | > 100 µM (inactive) | 26.9 µM (inactive) | 77.1 µM (inactive) | 44.2 µM (inactive) | 76 µM (inactive) | 33.9 µM (inactive) |  | 35.2 µM (inactive) | 37 µM (inactive) | 36.6 µM (inactive) | 72.1 µM (inactive) | 51.9 µM (inactive) | > 100 µM (inactive) | 73.1 µM (inactive) | 
CCOC(=O)c1c(CN2CCOCC2)n(Cc2ccccc2)c2c1cc(O)c1nc(C)c(C)nc12 | 36.1 µM (inactive) | > 100 µM (inactive) | 35.5 µM (inactive) | 35.5 µM (inactive) |  |  | 28.6 µM (inactive) | > 100 µM (inactive) | 40 µM (inactive) | 38.2 µM (inactive) | 27.7 µM (inactive) | 49 µM (inactive) | 22 µM (inactive) | > 100 µM (inactive) | > 100 µM (inactive) | 
CCCOC(=O)C1C2CCC(O2)C1C(=O)O (stereo not drawn) | > 100 µM (inactive) | > 100 µM (inactive) | > 100 µM (inactive) | > 100 µM (inactive) | > 100 µM (inactive) |  | > 100 µM (inactive) | > 100 µM (inactive) | > 100 µM (inactive) | > 100 µM (inactive) | > 100 µM (inactive) | > 100 µM (inactive) | > 100 µM (inactive) | > 100 µM (inactive) | > 100 µM (inactive) | > 100 µM (inactive)
